Source: patent US20230414735A1, “NEOANTIGENS AND METHODS OF THEIR USE” (priority 2016, published 2023)
Read-outs that look alike come from different tables or passages of the source. Where a SMILES comes first, the peptide text is derived from it. Where no end group is shown, it is not given here.

What was measured:
[1] = target: T1, HLA class I molecule (Homo sapiens, UniProt P04439); experiment: HLA class I peptide binding affinity assay (inhibition of 125I-radiolabeled probe peptide binding to purified HLA); conditions: Allele A03.01; read-out: Observed Affinity (IC50; (nM))
T1 construct: made in house; host or cells: EBV-transformed homozygous cell lines, fibroblasts, CIR or 721.22 transfectants; purified from detergent lysates on an anti-HLA antibody column
T1 sequence (P04439 25-365): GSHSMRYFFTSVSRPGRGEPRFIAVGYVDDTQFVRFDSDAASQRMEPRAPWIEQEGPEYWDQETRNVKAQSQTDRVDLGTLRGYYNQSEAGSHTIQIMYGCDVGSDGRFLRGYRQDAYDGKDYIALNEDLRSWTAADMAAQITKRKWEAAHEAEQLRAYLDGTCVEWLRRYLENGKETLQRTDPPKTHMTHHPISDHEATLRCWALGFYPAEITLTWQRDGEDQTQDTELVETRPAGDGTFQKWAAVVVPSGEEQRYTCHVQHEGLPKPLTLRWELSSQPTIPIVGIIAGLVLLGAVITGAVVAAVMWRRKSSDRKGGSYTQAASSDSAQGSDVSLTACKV
T1 sequence (P61769 21-119 partner): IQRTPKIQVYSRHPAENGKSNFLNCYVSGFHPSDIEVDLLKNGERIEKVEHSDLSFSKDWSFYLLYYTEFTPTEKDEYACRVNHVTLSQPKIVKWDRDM
In short: (§1)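 Competition by test peptides for binding of an iodinated (chloramine-T) probe peptide to affinity-purified HLA class I from EBV-transformed lines or transfectants. Bound and free peptide separated by TSK gel filtration with radioactivity detection. IC50 approximates KD ([label]<[HLA], IC50≥[HLA]), also compiled as relative binding against positive controls.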

[2] = system: HLA-A02:01+ T cells (CD8+ T cells); experiment: Immunogenicity assay: CD8+ T cell expansion with peptide-loaded monocyte-derived dendritic cells, multimer/tetramer staining; assay type: cell-based, human; conditions: HLA-A02:01^+ T cells co-cultured 10 days with peptide-loaded monocyte-derived dendritic cells; initial and validation multimer preparations; shown as examples of positive multimer staining (FIGS. 3-6)
Experimental: Immunogenicity assays are used to test the ability of each test peptide to expand T cells. Mature professional APCs are prepared for these assays in the following way. Monocytes are enriched from healthy human donor PBMCs using a bead-based kit (Miltenyi). Enriched cells are plated in GM-CSF and IL-4 to induce immature DCs. After 5 days, immature DCs are incubated at 37° C. with each peptide for 1 hour before addition of a cytokine maturation cocktail (GM-CSF, IL-1β, IL-4, IL-6, TNFα, PGE1β). Cells are incubated at 37° C. to mature DCs.
After maturation of DCs, PBMCs (either bulk or enriched for T cells) are added to mature dendritic cells with proliferation cytokines. Cultures are monitored for peptide-specific T cells using a combination of functional assays and/or tetramer staining Parallel immunogenicity assays with the modified and parent peptides allowed for comparisons of the relative efficiency with which the peptides expanded peptide-specific T cells.
Tetramer Staining. MHC tetramers are purchased or manufactured on-site, and are used to measure peptide-specific T cell expansion in the immunogenicity assays. For the assessment, tetramer is added to 1×10^5 cells in PBS containing 1% FCS and 0.1% sodium azide (FACS buffer) according to manufacturer's instructions. Cells are incubated in the dark for 20 minutes at room temperature. […] Cells are washed with cold FACS buffer and resuspended in buffer containing 1% formaldehyde. Cells are acquired on a FACS Calibur (Becton Dickinson) instrument, and are analyzed by use of Cellquest software (Becton Dickinson). For analysis of tetramer positive cells, the lymphocyte gate is taken from the forward and side-scatter plots. Data are reported as the percentage of cells that were CD8^+/Tetramer^+.
Immunogenicity assays were carried out to assess whether each peptide can elicit a T cell response by antigen-specific expansion. […] Each positive result was measured with a second multimer preparation to avoid any preparation biases.

[3] = target: HLA class I molecule; experiment: HLA class I peptide binding affinity assay (inhibition of 125I-radiolabeled probe peptide binding to purified HLA); design: species or system human; conditions: read-out: Observed Affinity (IC50, (nM))
In short: as §1

[4] = system: HLA Class I molecules; experiment: HLA class I binding stability assay (pMHC-I complex dissociation, 125I-labeled β2m, scintillation counts); design: species or system human
Experimental: These reactions are carried out in streptavidin coated microplates to bind th biotinylated MHC-I heavy chains to the surface and allow measurement of radiolabeled light chain to monitor complex formation. Dissociation is initiated by addition of higher concentations of unlabled light-chain and incubation at 37° C. Stability is defined as the length of time in hours it takes for half of the complexes to dissociate, as measured by scintillation counts

[5] = system: ovarian carcinoma patients; conditions: ovarian carcinoma patients immunized with poly-ICLC in combination with a NYESO-1 peptide vaccine (in addition to Montanide); phase 1 study; cited from earlier work
[6] = allele A02.01, pMHC-I dissociation at 37° C.

| Molecule | IC50 ([3]; allele A02.01) | Stability (T1/2 (h)) ([4]; allele A02.01, 37° C.) | also measured |
| --- | --- | --- | --- |
| CC[C@H](C)[C@H](NC(=O)[C@H](Cc1c[nH]c2ccccc12)NC(=O)[C@H](CS)NC(=O)[C@H](Cc1ccccc1)NC(=O)[C@@H](N)Cc1ccccc1)C(=O)N[C@@H](CC(C)C)C(=O)N[C@@H](CO)C(=O)N[C@@H](CS)C(=O)N[C@@H](CCCCN)C(=O)O (H-FFCWILSCK-OH) |  |  | IC50 [1]: 185 nM |
| ALNSEALSV [HLA-A02:01] |  |  | antigen-specific (multimer-double-positive) CD8^+ T cells, multimer staining [2]: antigen-specificity |
| LLCVWVSSI [HLA-A02:01] |  |  | antigen-specific (multimer-double-positive) CD8^+ T cells, multimer staining [2]: antigen-specificity |
| SLYIVGFYGA | 390 nM | 0.4 h |  |
| SMLTDSLFL | 31 nM | 9.8 h |  |
| SMLTGPPARV [HLA-A02:01] |  |  | antigen-specific (multimer-double-positive) CD8^+ T cells, multimer staining [2]: antigen-specificity |
| VLHECNSLYI | 10 nM | 5.1 h |  |
| VLHESNSPYI | 131 nM | 1.9 h |  |
| VLLSVHLIV | 72 nM |  | Stability (T1/2 (h)) [4, 6]: 11 h |
| VLTVTSTDV | 295 nM | 1.1 h |  |
| VMAGLGSPYV | 102 nM | 2.9 h |  |
| VMAYVMAGV | 2 nM | 16.5 h |  |
| WLHKRGKYI | 1250 nM |  | IC50 ([3]; allele B08.01): 417 nM; Stability (T1/2 (h)) [4, 6]: 1.2 h; Stability (T1/2 (h)) ([4]; allele B08.01, pMHC-I dissociation at 37° C.): 1.3 h |
| WMTETLFDI | 14 nM | 4 h |  |
| WMTETLFDIV | 40 nM | 0.4 h | IC50 ([3]; allele A01.01): 14400 nM |
| YLGNHMNIA | 117 nM | 0.6 h | IC50 ([3]; allele B08.01): 872 nM |
| YLVIQLQDKF | 2060 nM |  | IC50 ([3]; allele A24.02): 2150 nM; Stability (T1/2 (h)) ([4]; allele A24.02, pMHC-I dissociation at 37° C.): 2.6 h |
| YQQQQQSDL | 799 nM | 0.4 h | IC50 ([3]; allele B08.01): 18900 nM |
| poly-ICLC |  |  | patients showing induction of CD4+ and CD8+ T cell, as well as antibody responses to the peptide [5]: > 90% |
